Laboratory results: patent US11684592B2, “Multiresistant-tumour sensitiser” (Instituto Nacional de Neurologia Y Neurocirugia Manuel …, priority 2017, dated 2023)

Assays:
normal cells = test: Toxicity to normal cells; type: cell-based; conditions: high concentration
C6 cells [1] = test: Effect on glutathione (GSH) concentration, GT10 colorimetric test; type: cell-based, rat
Experimental: Reduced glutathione (GSH) intracellular concentration were measured by a colorimetric test using the GT10 (Oxford Biomedical Research® kit), following the manufacturer's instructions. […] The controls were incubated with DMEM media only. Absorbance was read at 400 nm in Cytation3 ® cell Imaging Multi-mode reader (BioTeck, USA). It is observed that at low concentrations of Cur-[G2]-OH, the synthesis of GSH is induced in C6 cells, but at high concentrations GSH synthesis is inhibited and decrease its concentration in cells.

[2] = tested on: Keap1, Nrf2 and p62 in C6 cells; test: Sequential immunofluorescence, co-location of Keap1-p62, Nrf2-p62 and Keap1-Nrf2; type: cell-based, rat; conditions: Cur-[G2]-OH 6, 45 or 90 µM, 24 hours
Experimental: Sequential immunofluorescence: For the protein co-location studies of Keap1-p62, Nrf2-p62 and Keap1-Nrf2, 5×10^3 C6 cells/well were grown in half-area 96 well plates and incubated for 24 hours. Subsequently, the cells were treated with Cur-[G2]-OH (6, 45 or 90 µM) and incubated for 24 hours. In control cells only DMEM medium was replaced by fresh medium. Then, cells were washed with cold PBS and fixed with paraformaldehyde (4% in PBS) or with a mix of methanol/acetone, with paraformaldehyde, cells were washed and permeabilized with PBST (this step was not performed on the cells fixed with methanol/acetone). Cells were washed again and blocked in BSA at 1% in PBST.
The cells were incubated in the first primary antibody (Keap1 or Nrf2) at 4° C. overnight, and subsequently washed and re-incubated with the fluorochrome-conjugated secondary antibody (Alexa fluor 488 Abcam® ab150129), in the dark for 1 hour at room temperature. They were washed and again blocked for 30 minutes with goat serum; The serum was removed and the solution of the second respective primary antibody (p62 or Nrf2) was placed. It was incubated at 4° C. overnight. The incubation of the secondary antibodies proceeded in the same manner as described before, but using the Alexa flour 647 antibody from Abcam® (ab150079). The nuclei were stained with Hoechst 33342 solution (0.1 μg/ml) and the images were captured on a Cytation 3® multimodal plate reader (Bio Tek®, Instruments Inc.), with the Gen5 2.06 program using DAPI filters (λ=377-447 nm), GFP (λ=469-525 nm) and Texas Red (λ=586-647 nm).

C6 cells [3] = test: Sensitization of tumor cells to oxidative stress (FeSO4), MTT cell viability; type: cell-based, rat
Experimental: C6 cells (1×10^5 cells/well) were seeded in 96 wells plates. At 24 h, a group of cells were treated with FeSO4 at concentrations of 50, 80, 100 and 150 μM or Cur-[G2]-OH at concentrations of 240 or 300 μM and incubated for an additional 24 hours.
Another group of cells were previously incubated by 2 h with the oxidizing agent FeSO4 at concentrations of 50, 80, 100 and 150 μM and subsequently washed for addition to cur-[G2]-OH at concentrations of 240 or 300 μM, continued to incubate until 24 h was completed. A last group of cells, first was treated with Cur-[G2]-OH at concentrations of 240 or 300 μM for 4 h and subsequently changed the medium and FeSO4 was added to concentrations of 50, 80, 100 or 150 μM continuing incubation for 20 hours more.
The colorimetric test based on the reduction of tetrazolium dye MTT (3-(4,5-dimethyltiazol-2-yl)-2,5-diphenyltetrazolium bromide) was used to determine cell viability (Terry L. et al. Cell Viability Assays. May 1, 2013). The formazan crystals were dissolved with a mixture of isopropanol/acetic acid and the absorbance was measured at 540 nm in a microplate reader (Molecular Devices, Sunnyvale, Calif., USA).
The data were statistically analyzed using a one-way ANOVA analysis, and Newman Keuls post-analysis for multiple comparisons (n=3, Mean=SEM).

[4] = tested on: Beclin-1, p62, Nrf2, eIF2a and p-eIF2α in C6 cells; test: Analysis of autophagy markers and Nrf2 pathway by Western blot; type: cell-based, rat; conditions: for levels of total eIF2-α (immunoblot) / phosphorylation of eIF2-α (p-eIF2-α, immunoblot): curcumin 2, 15 and 30 μM or Cur-[G2]-OH 6, 45 and 90 μM
Experimental: C6 cells were grown in 25 cm^2 culture bottles (Corning® N.Y.) to form a 70% confluent monolayer (approximately 4×10^6 cells) and treated with Cur-[G2]-OH (300 μM) for 24 hours. The cells were washed in cold PBS, and lysis buffer (50 mM Tris-HCl, 120 mM NaCl, 0.01% IGEPAL) was added with a protease inhibitor cocktail (Sigma® P8340) and centrifuged to recover the supernatant. Proteins were quantified by the Lowry method (Lowry et al. 1951).
[…] The membranes were blocked with skim milk and subsequently incubated with the respective primary antibody (Beclin1, ab62557; p62, ab91526; Nrf2, sc-30915; p-eIF2α, sc-12412; eIF2, sc-11386 or β-actin, sc-47778) under stirring overnight at 4° C. After incubation, the membranes were washed with a Tween 20 tris-base saline buffer (TBST) and incubated with the respective secondary antibody conjugated to horseradish peroxidase (SIGMA). The bands were visualized by chemiluminescence with the Western Blotting Luminol Reagent reagents (Santacruz Biotechnology®), and the ChemiDoc-It® TS2 Imaging System (UVP, LLC).

C6 cells from rat glioma [5] = test: DNA fragmentation assay; type: cell-based; conditions: curcumin 100 μM or Cur-[G2]-OH 300 μM, 24 h
Experimental: To determine DNA fragmentation, C6 cells (1×10^6) were seeded in Petri dishes (100 mm) at a confluence of 70%. They were treated with curcumin (100 μM) or Cur-[G2]-OH (300 μM) and incubated for 24 and 48 hours. Controls were incubated with vehicle only (DMSO or PBS respectively).
The DNA was extracted using Trizol (Invitrogen® 15596-026), according to the supplier's specifications, and quantified on a spectrophotometer (Genesys 8®). 20 μg of DNA from each sample was deposited on a 1.5% agarose gel. Electrophoresis was performed at 100 V for 90 minutes. The gel was stained with the Hydragreen™ dye (ACTGene ACT-IDM604) and DNA detection was performed using the ethidium bromide filter and UV light on the Chemidoc-It TS2 imager photodocument (UVP, CA).

[6] = tested on: p62, Beclin1 or LC3 in C6 cells; test: Analysis of autophagy markers by immunofluorescence (simple staining); type: cell-based, rat; conditions: Cur-[G2]-OH 3-150 μM, 6 and 24 hours
Experimental: Simple staining: 1×10^4 C6 cells/well were cultured with 100 μL of DMEM medium in 96-well plates and incubated 24 hours. Cells were treated with different concentrations of Cur-[G2]-OH (3, 6, 15, 30, 45, 90 and 150 μM), and incubated for 6 and 24 hours. Control cells were replaced only with fresh DMEM medium. The cells were washed with cold PBS and fixed with a mixture of methanol/acetone (1:1) for 5 minutes; they were washed with PBS and incubated with 1% BSA in PBST. Subsequently, they were incubated with the primary antibody (p62, Beclin1 or LC3) at 4° C. overnight. They were washed and incubated with the fluorochrome-conjugated secondary antibody (Abcam® ab150073 Alexa fluor 488) for 1 hour at room temperature. They were washed with PBS and the nucleus stained with Hoechst 33342 (0.1 μg/ml). The images were observed on a Cytation 3® multimodal plate reader and captured and analyzed with the Gen5® 2.06 program using the DAPI (λ=377-447 nm) and GFP (λ=469-525 nm) filters.

C6 cells [7] = test: Determination of Reactive Oxygen Species (ROS); type: cell-based, rat; conditions: 1 hour; for generation of ROS: curcumin 2, 15, 30 or 100 μM or Cur-[G2]-OH 6, 45, 90 or 300 μM, without NAC; for generation of ROS in the presence of N-acetyl Cysteine (NAC): with NAC 400 μM
Experimental: Intracellular generation of ROS was evaluated in real time by fluorescence microscopy using the ENZ-51011 detection kit (Enzo® Life Sciences). 5×10^3 cells per well were grown in half-area 96 wells plates (Costar 3595®) and incubated for 24 hours. Then, were incubated for 1 hour, with curcumin (2, 15, 30 or 100 μM), or Cur-[G2]-OH (6, 45, 90 or 300 μM) alone or in the presence of the ROS inhibitor N-Acetyl Cysteine (NAC, 400 μM) according to the manufacturer's instructions. As controls, pyocyanin (200 μM) was used as an inducer and NAC […] as an inhibitor, or DMEM medium with or without DMSO as a negative control. At the end of treatment, the test solutions were withdrawn, and the ROS detection solution was added. The plates were observed under bright field and fluorescence microscopy with the GFP filter (λ=469-525 nm), in the Cytation 3® multimodal reader (BioTek®, USA), and the images were captured and analyzed with the Gen5 2.06 program (BioTek®, USA). The experiments were performed five times.

[8] = Stability in acidic pH of gastric juices; type: physicochemical
C6 cells from rat glioma [9] = test: Determination of apoptotic death by dual staining with propidium iodide and Hoechst 33342; type: cell-based; conditions: curcumin 100 μM or Cur-[G2]-OH 300 μM, 24 or 48 hours
Experimental: C6 cells from rat glioma (American Tissue Culture Collection, Rockville, Md., U.S.A. ATCC® CCL-107™) cultured under standard conditions in DMEM medium supplemented with Bovine Fetal Serum and 15% horse serum were used for the experiments.
1×10^4 C6 cells/well were cultured with 100 μl of Dulbecco's Modified Eagle's Medium (DMEM) medium for 24 hours in 96-well plates. The cells were treated with curcumin (100 μM), or with Cur-[G2]-OH (300 μM), or with the respective vehicle as a control. After 24- or 48-hours post-treatment, the cells were fixed with a mixture of methanol/acetone (1:1) and stained with propidium iodide (0.5 μg/ml), washed and Hoechst 33342 dye was added (0.1 μg/ml) for staining the nuclei. Cells were observed on the Cytation 3® plate reader (BioTek® Instruments, Inc.) using the DAPI (λ=377-447 nm) and Texas Red (λ=586-647 nm) filters, and the images were captured and analyzed with the Gen5 2.06® program.

[10] = Cur-[G2]-OH 300 μM, 24 h, vs untreated cells

COc1cc(/C=C/C(=O)/C=C(O)/C=C/c2ccc(OC(=O)C(C)(COC(=O)C(C)(CO)CO)COC(=O)C(C)(CO)CO)c(OC)c2)ccc1OC(=O)C(C)(COC(=O)C(C)(CO)CO)COC(=O)C(C)(CO)CO [Cur-[G-2]-OH]
toxicity to normal cells (normal cells): not toxic to normal cells at high concentration
decrease at GSH levels (C6 cells [1]; 300 μM, 24 h): about 50%
GSH levels (C6 cells [1]; 300 μM, 48 hours, data not shown): complete elimination of GSH levels
baseline levels of GSH (C6 cells [1]; intermediate doses 45 and 90 μM, 24 hours): causes the baseline levels of GSH to increase considerably
co-location Keap1-Nrf2 in the nucleus [2]: interaction of Keap1 with Nrf2 in this subcellular compartment is observed
expression of Keap1 in nucleus and cytoplasm (immunofluorescence) [2]: significant levels are still detected, both in the nucleus and in the cytoplasm
expression of Nrf2 in cytoplasm and nucleus (immunofluorescence) [2]: rapidly induces the loss of the expression of protein Nrf2 in the cytoplasm and the attenuation of the signal in the nucleus
p62 localisation and co-location Keap1-p62 [2]: promotes the exclusion of p62 from the nucleus and its interaction with Keap1 in the cytoplasm and autophagosomes
cell viability / cytotoxicity in combination with FeSO4 (MTT) (C6 cells [3]; C6 cells first exposed to FeSO4 50-150 μM for 2 h, then Cur-[G2]-OH 240 or 300 μM, or administered simultaneously): This synergism does not exist
cell viability / cytotoxicity in combination with FeSO4 (MTT) (C6 cells [3]; C6 cells pre-incubated with Cur-[G2]-OH 240 or 300 μM for 4 h, then FeSO4 50-150 μM for 20 h): synergism between Cur-[G-2]-OH and FeSO4
expression of Beclin1 (Western blot) [4, 10]: increases the expression of Beclin1
expression of p62 (Western blot) [4, 10]: decreases the expression of p62
total levels of the Nrf2 protein (immunoblot) ([4]; Cur-[G2]-OH 300 μM, vs untreated cells): significant decrease in Total levels of the Nrf2 protein
levels of total eIF2-α (immunoblot) ([4]; 24 h): without substantial changes in the levels of total eIF2-α
phosphorylation of eIF2-α (p-eIF2-α, immunoblot) ([4]; 24 h): significant decrease in phosphorylation of eIF2-α
DNA fragmentation (agarose gel electrophoresis) (C6 cells from rat glioma [5]): DNA remains packed and does not migrate into the gel
expression of Beclin1 (immunofluorescence) [6]: induces the expression of proteins Beclin1 and LC3, in a concentration-dependent manner
expression of LC3 (immunofluorescence) [6]: induces the expression of proteins Beclin1 and LC3, in a concentration-dependent manner
expression of p62 (immunofluorescence) [6]: significantly decreasing expression of p62
generation of ROS (C6 cells [7]): promotes the generation of ROS in a concentration-depending manner
generation of ROS in the presence of N-acetyl Cysteine (NAC) (C6 cells [7]): not substantially modified with the use of an antioxidant (NAC)
stability in acidic pH [8]: instability of Cur-[G-2]-OH in the acidic pH of gastric juices
nuclear staining / apoptotic morphology (propidium iodide and Hoechst 33342) (C6 cells from rat glioma [9]): staining of the nuclei similar to that of the untreated controls

COc1cc(/C=C/C(=O)CC(=O)/C=C/c2ccc(O)c(OC)c2)ccc1O [curcumin, reference compound]
levels of total eIF2-α (immunoblot) ([4]; 24 h): increases both the levels of total eIF2-α
phosphorylation of eIF2-α (p-eIF2-α, immunoblot) ([4]; 24 h): increases both the levels of total eIF2-α, and the levels of p-eIF2α
DNA fragmentation (agarose gel electrophoresis) (C6 cells from rat glioma [5]): DNA fragmentation was only evident in cells treated with curcumin
generation of ROS (C6 cells [7]): less effective at producing ROS
generation of ROS in the presence of N-acetyl Cysteine (NAC) (C6 cells [7]): slightly amplified with the use of NAC
nuclear staining / apoptotic morphology (propidium iodide and Hoechst 33342) (C6 cells from rat glioma [9]): chromatin condensation (stars), nuclear fragmentation (thin arrows) and apoptotic bodies (arrowheads)
